Compound | logP
CCCCCCCCCCCC(CC)c1ccccc1 (stereo not drawn) | 9.29
CCCCCCCCCC(C)c1ccccc1 (stereo not drawn) | 7.63
CCCCCCCC(CC)c1ccccc1 (stereo not drawn) | 7
CCCCCCCCCCCC(C)c1ccccc1 (stereo not drawn) | 8.77
CCCCCCCCCCC(C)c1ccccc1 (stereo not drawn) | 8.19
CCCCCCCCC(C)c1ccccc1 (stereo not drawn) | 7.06
CCCCCCCCCCCCc1ccccc1 | 8.65
CCCCCCC(CCC)c1ccccc1 (stereo not drawn) | 7
CCCCCCCCC(CC)c1ccccc1 (stereo not drawn) | 7.53
CCCCCCCCCCCCCCc1ccccc1 | 9.95
CCCCCCCCCCCCCc1ccccc1 | 9.36
CCCCCCCCCCCc1ccccc1 | 8.14
CCCCCCCCCCC(CC)c1ccccc1 (stereo not drawn) | 8.65
CCCCCCCCCCCCC(C)c1ccccc1 (stereo not drawn) | 9.29

Further lines, results first:

logP | Compound
8.07 | CCCCCCCCC(CCC)c1ccccc1 (stereo not drawn)
9.16 | CCCCCCCCCC(CCCC)c1ccccc1 (stereo not drawn)
8.01 | CCCCCCC(CCCCC)c1ccccc1 (stereo not drawn)
8.1 | CCCCCCCCCC(CC)c1ccccc1 (stereo not drawn)
7.45 | CCCCCCC(CCCC)c1ccccc1 (stereo not drawn)
8.56 | CCCCCCCC(CCCCC)c1ccccc1 (stereo not drawn)
8.01 | CCCCCCCC(CCCC)c1ccccc1 (stereo not drawn)
9.16 | CCCCCCCCC(CCCCC)c1ccccc1 (stereo not drawn)
8.56 | CCCCCCCCC(CCCC)c1ccccc1 (stereo not drawn)
8.62 | CCCCCCCCCC(CCC)c1ccccc1 (stereo not drawn)
7.59 | CCCCCCCC(CCC)c1ccccc1 (stereo not drawn)
7.45 | CCCCCC(CCCCC)c1ccccc1
6.9 | CCCCCC(CCCC)c1ccccc1 (stereo not drawn)
9.25 | CCCCCCCCCCC(CCC)c1ccccc1 (stereo not drawn)

— the SangsterLogP compilation
